# Laboratory results: US4007201A, “Novel pyrazole derivatives” (Kyorin Pharmaceutical Co. Ltd., priority 1975, dated 1977)
# Like-named read-outs stand apart in the source and are kept apart here.
# Legend:
# [1] = tested on: blood glucose level in streptozotocin-diabetic rats; experiment: Hypoglycemic effect in streptozotocin-diabetic rats; format: in vivo, male Sprague Dawley rats; conditions: for Blood glucose level Before: before (baseline); for Hypoglycemic effect in streptozotocin-diabetic rats (in words): oral
# Procedure: The animals used for the pharmacological studies were male Sprague Dawley rats exept otherwise noted. 1. […]
# The rats were fasted for 16 hours, and then streptozotocin was intravenously injected in a dose of 65 mg/kg. Oral administration of the compound 4 was performed at 48 hours after the injection of streptozotocin. Blood samples were taken at 4 hours after the oral administration, and the blood glucose level in each sample was determined.
# [2] = tested on: serum FFA level in alloxan diabetic rats; experiment: Serum FFA level in alloxan diabetic rats loaded with much quantity of glucose; format: in vivo, male Sprague Dawley rats; conditions: compound 4 12.5 and 100 mg/kg, phenformin 100mg/kg; oral with 2g/kg of glucose; 3 hours
# Procedure: (§1) These new compounds of the present invention are very useful as anti-diabetic agents, which is supported from the following pharmacological studies. The animals used for the pharmacological studies were male Sprague Dawley rats exept otherwise noted. 1. Hypoglycemic activity in non-diabetic rats (screening test)
# (§2) Respective dose of the compound 4 (12.5 and 100 mg/kg) together with 2g/kg of glucose was orally administered to the alloxan diabetic rats.
# Acute toxicity in mice = format: in vivo
# Excerpt: (§3) Thus, the toxicity of the present compound was considered to be extremely low.
# [3] = tested on: blood glucose level in non-diabetic rats; experiment: Blood glucose level in non-diabetic rats at 90 minutes; format: in vivo, male Sprague Dawley rats; conditions: 100 mg/kg oral
# Procedure: as §1
# (§4) The rats were fasted for 16-18 hours, and those weighing 130-160g were used. The compound 4 suspended in 1% CMC was orally administered to the fasted rats, and at 90 minutes after administration blood was drawn from the […] vena cava under anesthesia with sodium pentobarbital. The blood glucose level was determined by the method of Momose, and the serum FFA level was determined by the method of Itaya and Ui as described in J. Lipid Res., 6, 16 (1965), respectively.
# [4] = tested on: blood glucose level in alloxan diabetic rats; experiment: Blood glucose level in alloxan diabetic rats loaded with much quantity of glucose; format: in vivo, male Sprague Dawley rats
# Procedure: as §1, §2
# [5] = tested on: elevated blood glucose levels in adrenalectomized rats induced by adrenalin; experiment: Adrenalin-induced hyperglycemia in adrenalectomized rats; format: in vivo, male Sprague Dawley rats; conditions: 4 mg/kg; adrenalin (50 mg/kg) subcutaneous
# [6] = tested on: serum FFA level in non-diabetic rats; experiment: Serum free fatty acids (FFA) level in non-diabetic rats at 90 minutes; format: in vivo, male Sprague Dawley rats; conditions: 100 mg/kg oral
# Procedure: as §1, §4
# [7] = tested on: blood glucose level in non-diabetic rats; experiment: Hypoglycemic activity in non-diabetic rats (screening test); format: in vivo, male Sprague Dawley rats; conditions: Rattus norvegicus, 100 mg/kg oral, fasted, glucose s.c.
# Procedure: as §1
# The rats were fasted for 16 - 18 hours prior to the experiment and those weighing 140 - 160g were used. Glucose solution (100 mg/0.5ml/150g body weight) was subcutaneously injected on the fasted rats. Each of the present compounds was suspended in 1% carboxymethyl cellulose (CMC), and about 0.5 ml of the suspension (corresponding to 100 mg/kg of the compound per body weight) was orally administered. Blood samples were taken from the tail vein of the rats at 2 and 5 hours after the administration, and the blood glucose level in each sample (0.1 ml) was determined by the micro method of Momose as described in SOGO-RINSHO 11, 120 (1962).
# 3,5-Dinitrophthalic acid is reduced with glucose to stable orange-red azo-compound via red hydroxyaminophthalic acid in basic media.
# To 0.5ml of water was added 0.1ml of blood and shaken to hemolyze, and to which was added 1.7ml of 0.06N barium hydroxide solution. To the resulting dark-brown solution was added 1.7ml of zinc sulfate solution (1g/dl), and which was shaken thoroughly and allowed to stand for 2-3min followed by centrifugation.
# One ml of 3,5-dinitrophthalic acid solution (1.5g of monopyridinium-3,5-dinitrophthalate in 500ml of water) and 1 ml of sodium carbonatesodium hyposulfite solution (125-25g/500ml) were added to 2ml of spernatant solution. The solution was heated at 100° C for 10 min. After cooling with running water for 3 min, water was added to make 20ml.
# To 2ml of water were added 3,5-dinitrophthalic acid solution and an alkaline solution, and the solution was treated as mentioned above.
# As the absorbance of reference at 450nm was adjusted to 0, the absorbance of sample corresponded to blood glucose level.
# [8] = tested on: serum triglyceride level in alloxan diabetic rats; experiment: Serum triglyceride level in alloxan diabetic rats, 10 consecutive days; format: in vivo, male Sprague Dawley rats
# Procedure: The animals used for the pharmacological studies were male Sprague Dawley rats exept otherwise noted. 1. Hypoglycemic activity in non-diabetic rats (screening test)
# (§5) Alloxan diabetic rats were obtained as follows. Namely, 2.5% fresh solution of alloxan (50mg/kg) was injected into the tail vein of male rats, and the rats were daily injected with insulin (1-4 units/day) from the 7th day after the administration of alloxan. The alloxan diabetic rats which were survived for more than 2 months with daily injection of insulin were used. The alloxan diabetic rats were fasted for 24 hours after the last treatment with insulin, and then the compound of the present invention was orally administered. The blood glucose levels were determined by the micro method of Momose before and 2, 4 and 6 hours after the administration.
# (§6) The alloxan diabetic rats which were prepared and then preserved for 6 months with insulin as described in the previous experiment were used.
# [9] = tested on: serum FFA level in alloxan diabetic rats; experiment: Serum FFA level in alloxan diabetic rats, 10 consecutive days; format: in vivo, male Sprague Dawley rats
# Procedure: as §1, §5, §6
# Acute toxicity in rats = format: in vivo
# Excerpt: as §3
# [10] = tested on: serum cholesterol level in alloxan diabetic rats; experiment: Serum cholesterol level in alloxan diabetic rats, 10 consecutive days; format: in vivo, male Sprague Dawley rats
# Procedure: as §1, §5, §6
# [11] = tested on: elevated blood glucose levels in adrenalectomized rats induced by hydrocortisone acetate; experiment: Hydrocortisone acetate-induced hyperglycemia in adrenalectomized rats; format: in vivo, male Sprague Dawley rats; conditions: 4 mg/kg; hydrocortisone acetate intravenous
# [12] = Rattus norvegicus, 100 mg/kg oral, 4 hours
# [13] = maximum dose technically possible
# [14] = 2 hours, read-out: Reduction % of blood glucose from control after 2 hours
# [15] = 5 hours, read-out: Reduction % of blood glucose from control after 5 hours
# [16] = 100 mg/kg, 10 consecutive days, control = 100
compound,measurement,setting,value
"Cc1cc(C)n(C(=O)CNS(=O)(=O)c2ccc(Cl)cc2)n1 [Example 4, 1-(N-p-chlorobenzenesulfonyl-glycyl)-3,5-dimethylpyrazole]",Blood glucose level Before,[1]; 6.25 mg/kg oral group,425.3 ± 10.5 mg %
same,Blood glucose level 4 hours,"[1]; 6.25 mg/kg oral, 4 hours",263.2 ± 26.6 mg %
same,Blood glucose level Before,[1]; 25 mg/kg oral group,415.8 ± 12.2 mg %
same,Blood glucose level 4 hours,"[1]; 25 mg/kg oral, 4 hours",251.2 ± 21.8 mg %
same,Blood glucose level Before,[1]; 100 mg/kg oral group,411.5 ± 16.9 mg %
same,Blood glucose level 4 hours,"[1]; 100 mg/kg oral, 4 hours",231.4 ± 33.3 mg %
same,inhibition at 6.25 mg/kg,"[1]; Rattus norvegicus, 6.25 mg/kg oral, 4 hours",61.9 ± 6.2%
same,inhibition at 25 mg/kg,"[1]; Rattus norvegicus, 25 mg/kg oral, 4 hours",59.8 ± 3.8%
same,inhibition at 100 mg/kg,[1]; [12],54.3 ± 6.4%
same,Hypoglycemic effect in streptozotocin-diabetic rats (in words),[1]; 4 hours,markedly reduced the blood glucose level
same,Effect on serum FFA level (in words),[2],significantly lowered at 3 hours after the administration (p<0.005)
same,Maximum oral dose without death,Acute toxicity in mice; [13],about 17 g/kg
same,Mortality,"Acute toxicity in mice; oral, up to about 17g/kg",no mice or rats suffered death
same,Blood glucose level,[3],66.5 ± 6.0 mg/dL
same,Effect on blood glucose level (in words),[3],significantly lowered the blood glucose level
same,Effect on blood glucose level (in words),"[4]; 12.5 and 100 mg/kg oral with 2g/kg of glucose, 3 hours",significantly lowered at 3 hours after the administration (p<0.005)
same,Hypoglycemic activity against hyperglycemia induced by adrenalin,[5],particularly effective against the hyperglycemia induced by adrenalin
same,Effect on serum FFA level (in words),[6],more effective than tolbutamide in lowering the serum FFA level
same,Serum FFA level,[6],17.4 ± 5.8 μ Eq/dl
same,inhibition in vivo at 100 mg/kg,[7]; [14],41.9%
same,inhibition in vivo at 100 mg/kg,[7]; [15],25.2%
same,Triglyceride,"[8]; 100 mg/kg, 10 consecutive days",22.1 ± 4.6 mg/dl serum
same,"Triglyceride, relative to control (100)",[8]; [16],40.1
same,"Effect on serum triglyceride level, 10 days (in words)","[8]; oral, 10 days",significantly reduced
same,FFA,"[9]; 100 mg/kg, 10 consecutive days",28.5 ± 7.6 μ Eq/dl serum
same,"FFA, relative to control (100)",[9]; [16],44.0
same,"Effect on serum FFA level, 10 days (in words)","[9]; oral, 10 days",significantly reduced
same,Maximum oral dose without death,Acute toxicity in rats; [13],about 17 g/kg
same,Mortality,"Acute toxicity in rats; oral, up to about 17g/kg",no mice or rats suffered death
same,Cholesterol,"[10]; 100 mg/kg, 10 consecutive days",46.1 ± 2.9 mg/dl serum
same,"Cholesterol, relative to control (100)",[10]; [16],77.6
same,"Effect on serum cholesterol level, 10 days (in words)","[10]; oral, 10 days",significantly reduced
same,Hypoglycemic activity on elevated blood glucose induced by hydrocortisone acetate,[11],exerted its hypoglycemic activity on elevated blood glucose levels in adrenalectomized rats
"CCCCNC(=O)NS(=O)(=O)c1ccc(C)cc1 [Tolbutamide, reference compound]",Blood glucose level Before,[1]; 100 mg/kg oral group,413.9 ± 10.2 mg %
same,Blood glucose level 4 hours,"[1]; 100 mg/kg oral, 4 hours",327.8 ± 11.3 mg %
same,inhibition at 100 mg/kg,[1]; [12],79.4 ± 2.7%
same,Hypoglycemic effect in streptozotocin-diabetic rats (in words),[1]; 4 hours,did not have a potent hypoglycemic activity
same,Blood glucose level,[3],57.7 ± 12.1 mg/dL
same,Effect on blood glucose level (in words),[3],significantly lowered the blood glucose level
same,Hypoglycemic effect (in words),"[4]; alloxan diabetic rats, dose not stated",no hypoglycemic effect
same,Serum FFA level,[6],30.8 ± 15.6 μ Eq/dl
same,inhibition in vivo at 100 mg/kg,[7]; [14],54.1%
same,inhibition in vivo at 100 mg/kg,[7]; [15],52.4%
